Several values for one entry are separate records, joined by “and”; a condition that tells them apart may be missing. Equal entries are not always repeated.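 Interpolation was linear, between the two tested concentrations surrounding the appropriate level; five concentrations were tested over 48 hours in 96-well plates. The concentration for 50% growth inhibition is given as GI50. TGI marks complete inhibition of growth.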
How the values were obtained:
Assay in all cases: NCI anticancer screen, dose series, 48 h
HCT-15 colon = tested on: HCT-15 colon
UO-31 renal = tested on: UO-31 renal
HCC-2998 colon = tested on: HCC-2998 colon
SW-620 colon = tested on: SW-620 colon
ACHN renal = tested on: ACHN renal
EKVX NSCLC = tested on: EKVX NSCLC
OVCAR-8 ovarian = tested on: OVCAR-8 ovarian
LOX IMVI melanoma = tested on: LOX IMVI melanoma
SF-539 CNS = tested on: SF-539 CNS
MDA-MB-435 = tested on: MDA-MB-435

SMILES	TGI (HCT-15 colon)	TGI (UO-31 renal)	TGI (HCC-2998 colon)	TGI (SW-620 colon)	TGI (ACHN renal)	TGI (EKVX NSCLC)	TGI (OVCAR-8 ovarian)	TGI (LOX IMVI melanoma)	TGI (SF-539 CNS)	GI50 (HCT-15 colon)	GI50 (UO-31 renal)	GI50 (HCC-2998 colon)	GI50 (MDA-MB-435)	TGI (MDA-MB-435)	GI50 (SW-620 colon)	GI50 (ACHN renal)	GI50 (OVCAR-8 ovarian)	GI50 (LOX IMVI melanoma)	GI50 (SF-539 CNS)	GI50 (EKVX NSCLC)
Cc1c(Cl)ccc2c1NC(=O)C2(O)CC(=O)c1ccc(Cl)cc1 (configuration not stated)	> 60.1 µM	> 100 µM	> 56.2 µM	> 53.1 µM	> 100 µM	> 100 µM	> 100 µM	> 46.3 µM	> 100 µM	–	–	–	–	–	–	–	–	–	–	–
Cc1cc(Cl)ccc1N=C1NC(=O)C(CC(=O)Nc2cccc(Cl)c2)S1 (configuration not stated)	> 100 µM	> 100 µM	> 100 µM	> 100 µM	> 100 µM	> 100 µM	> 100 µM	> 100 µM	> 100 µM	–	–	–	–	–	–	–	–	–	–	–
COC(=O)C1=NC(=S)NC(c2ccccc2)C1c1nc2ccccc2o1 (configuration not stated)	> 50 µM	> 50 µM	> 50 µM	> 50 µM	> 50 µM	> 50 µM	> 50 µM	> 50 µM	> 50 µM	–	–	–	–	–	–	–	–	–	–	–
CC1(C)N=C(N)N=C(N)N1c1ccc(CCCC(=O)Nc2ccc(S(=O)(=O)F)cc2)cc1	> 100 µM	> 100 µM	> 100 µM	> 100 µM	> 100 µM	–	> 100 µM	> 100 µM	> 100 µM	39.3 µM	> 100 µM	14.5 µM	3.75 µM	> 100 µM	1.99 µM	58.7 µM	12.9 µM	6.03 µM	2.62 µM	–
COC(=O)c1c(C(=O)OC)c(-c2ccccc2)n(-c2ccccc2)c(=O)c1-c1ccccc1	> 100 µM	> 100 µM	> 100 µM	> 100 µM	–	> 100 µM	> 100 µM	> 100 µM	> 100 µM	–	–	–	–	–	–	–	–	–	–	–
Cc1ccc(NCCNCC(C)(C)O)c2c(=O)c3ccc(Cl)cc3sc12	2.32 µM	2.24 µM	2.91 µM	2.96 µM	–	2.87 µM	3.32 µM	–	2.82 µM	1.05 µM	1.03 µM	1.38 µM	1.74 µM	3.27 µM	1.5 µM	–	1.77 µM	–	1.44 µM	1.38 µM
N[C@@H]1CCCN(c2c(Br)cnc3[nH]cc(NC(=O)C4CC4)c23)C1	> 100 µM	1.06 µM	> 100 µM	> 100 µM	–	> 31.6 µM	> 100 µM	13.4 µM	0.503 µM	0.54 µM	0.232 µM	0.399 µM	–	–	2.06 µM	–	0.51 µM	0.435 µM	0.0809 µM	2.32 µM
COc1ccc(/C=C/C(=O)c2c(-c3ccccc3)nn(C)c(=O)c2N2CC2C)cc1 (configuration not stated)	80.5 µM	> 100 µM	66.6 µM	88.2 µM	> 100 µM	94.3 µM	> 100 µM	34 µM	> 100 µM	–	–	–	–	–	–	–	–	–	–	–
O=C(/C=C/c1ccc(O)c(O)c1)N1CCN(c2ccc(Cl)cc2)CC1	29.2 µM	20.1 µM	23.8 µM	81.4 µM	38.2 µM	–	44.4 µM	21.6 µM	21.1 µM	3.83 µM	2.08 µM	10.5 µM	5.93 µM	62.2 µM	7.28 µM	4.01 µM	5.46 µM	7.35 µM	4.4 µM	–
N#C/C(=C\c1ccc(O)cc1)C(N)=O	> 100 µM	> 100 µM	> 100 µM	> 100 µM	> 100 µM	97.8 µM and > 100 µM	> 100 µM	> 100 µM	> 100 µM	–	–	–	–	–	–	–	–	–	–	–
Cc1cc(NCCCCCCCNc2cc(C)nc3cc(N)ccc23)c2ccc(N)cc2n1	> 100 µM	> 100 µM	> 100 µM	–	> 100 µM	> 100 µM	> 100 µM	45.4 µM	> 100 µM	–	–	–	–	–	–	–	–	–	–	–
O=C(N/C(=C\c1ccc([N+](=O)[O-])cc1)c1nc2ccccc2s1)c1ccccc1	> 100 µM	56.3 µM	> 100 µM	69 µM	92.1 µM	–	64.2 µM	46.5 µM	55.1 µM	–	–	–	–	–	–	–	–	–	–	–
O=P(CN1CCOCC1)(c1ccccc1)c1ccccc1	> 100 µM	> 100 µM	–	> 100 µM	> 100 µM	> 100 µM	> 100 µM	> 100 µM	> 100 µM	–	–	–	–	–	–	–	–	–	–	–
CCCN1C(=O)/C(=C/c2ccc(SC(F)(F)F)cc2)SC1=Nc1ccc(OC)cc1	36.9 µM	17.1 µM	–	> 50 µM	11.8 µM	48.3 µM	20.7 µM	> 50 µM	21.6 µM	2.65 µM	8.2 µM	–	20 µM	> 50 µM	38.6 µM	5.53 µM	7.42 µM	4.36 µM	9.96 µM	16.7 µM
CC1[C@@]2(CCC(C)(C)O2)O[C@@H]2C=C3C4CCC5Cc6nc7c(nc6C[C@@]5(C)C4C[C@H](O)[C@@]3(C)[C@]12O)CC1CCC2C3=C[C@H]4O[C@@]5(O[C@@](C)(CO)C[C@@H]5O)C(C)[C@@]4(O)[C@]3(C)[C@@H](O)CC2[C@]1(C)C7 (some centres not stated)	0.732 µM and 0.075 µM	0.114 µM	0.86 µM	0.499 µM and 0.0508 µM	–	0.875 µM and 0.462 µM	1.2 µM	0.695 µM and 0.366 µM	0.0418 µM and 0.0415 µM	0.00907 µM	–	0.401 µM	–	–	0.00938 µM	–	0.426 µM	0.0106 µM	0.00303 µM	0.00521 µM
COC(=O)CC1(O)C(=O)OCc2c1cc1n(c2=O)Cc2c-1nc1ccccc1c2OC (configuration not stated)	> 100 µM	30.5 µM	> 100 µM	> 100 µM	1.02 µM	> 100 µM	> 28.5 µM	> 81.6 µM	0.681 µM	–	–	–	–	–	–	–	–	–	–	–
CCOc1ccc(NC(=O)CC2SC(=Nc3ccc(C)cc3)NC2=O)cc1 (configuration not stated)	> 100 µM	> 100 µM	–	> 100 µM	> 100 µM	> 100 µM	> 100 µM	> 100 µM	> 100 µM	–	–	–	–	–	–	–	–	–	–	–
O=S(=O)(c1ccccc1)N1CCCC(c2ccccc2)CC1 (configuration not stated)	> 100 µM	> 100 µM	61.3 µM	> 100 µM	> 100 µM	–	> 100 µM	–	> 100 µM	–	–	–	–	> 100 µM	–	–	–	–	–	–
CC1NOC(=O)C1N=Nc1cccc(Cl)c1 (configuration not stated)	42.6 µM	> 100 µM	> 100 µM	23.4 µM	> 100 µM	> 100 µM	> 100 µM	> 100 µM	> 100 µM	–	–	–	–	–	–	–	–	–	–	–
